According to patent US10532986B2, “Cyclic compound acting as PDE4 inhibitor” (MEDSHINE DISCOVERY INC., priority 2016, dated 2020):

Each molecule was assayed against T1, Recombinant human PDE4B (Homo sapiens, UniProt Q07343) (assay: Inhibitory activity of the compounds against PDE 4B (fluorescence polarization, Transcreener AMP2/GMP2)). Conditions: recombinant human PDE4B (aa 305-end, GST tag); 1 μM cAMP; 1 hour at room temperature.
T1 construct: amino acid 305-end; GST (N); made in house; host or cells: Sf9 insect cells (baculovirus)
Type: biochemical
Protocol: Inhibitory activity of the compounds against PDE 4B
The assay is based on the fluorescence polarization measuring AMP/GMP production as a result of the enzyme activity by displacement of Tracer binding to the AMP/GMP antibody.
10 mM Tris-HCl (pH 7.5), 5 mM MgCl2, 0.01% Brij 35, 1 mM DTT and 1% DMSO.
Recombinant human PDE4B (Gene accession number: NM_002600; amino acid 305-end) was expressed by baculovirus in Sf9 insect cells using an N-terminal GST tag. MW=78 kDa.
Transcreener® AMP^2/GMP^2 antibody and AMP^2/GMP^2 AlexaFluor 633 tracer
i) Recombinant human PDE4B and the enzyme substrate (1 μM cAMP) were dissolved in the newly-prepared buffer solution, respectively.
ii) The PDE4B buffer solution defined as above was transferred into the reaction wells.
iii) The compound which was dissolved in 100% DMSO was added to the reaction wells of the PDE4B buffer solution by Acoustic technology (Echo550; nanoliter range) and incubated at room temperature for 10 minutes.
iv) The enzymatic buffer solution was then added to the reaction wells defined as above to initiate the reaction.
v) The reaction was incubated at room temperature for 1 hour.
vi) The reaction was terminated by adding detecting mixture (Transcreener® AMP^2/GMP^2 antibody and AMP^2/GMP^2 AlexaFluor 633 tracer) and incubated for 90 minutes with gentle mixing. The measurement range of fluorescence polarization is Ex/Em=620/688.
The fluorescence polarization signal was converted into nM based on the AMP/GMP standard curve and the percent enzyme activity relative to DMSO calculated by Excel. GraphPad Prism was used to plot the curves (Drawing Medicine Icon)

T1 sequence (Q07343 305-736 limits assumed): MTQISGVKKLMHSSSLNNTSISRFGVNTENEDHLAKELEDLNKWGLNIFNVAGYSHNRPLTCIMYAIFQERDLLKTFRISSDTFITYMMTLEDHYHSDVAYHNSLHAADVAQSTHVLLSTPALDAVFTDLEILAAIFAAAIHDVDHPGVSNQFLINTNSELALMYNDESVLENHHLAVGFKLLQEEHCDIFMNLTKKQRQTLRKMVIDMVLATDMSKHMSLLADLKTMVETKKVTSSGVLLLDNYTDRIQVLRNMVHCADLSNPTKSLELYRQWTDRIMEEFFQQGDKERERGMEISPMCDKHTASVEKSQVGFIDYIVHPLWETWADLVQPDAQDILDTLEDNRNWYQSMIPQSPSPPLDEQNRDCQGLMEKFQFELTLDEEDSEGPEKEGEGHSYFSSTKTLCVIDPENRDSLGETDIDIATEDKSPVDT

| Structure (SMILES) | IC50 [nM] |
| --- | --- |
| CCOc1cc([C@@H](CS(C)(=O)=O)n2c(=O)[nH]c3c(-c4ncccc4F)cccc32)ccc1OC [WX097] | 5.04 |
| CCOc1cc([C@@H](CS(C)(=O)=O)n2c(=O)[nH]c3c(C4CC4)cccc32)ccc1OC [WX091] | 3.98 |
| CCOc1cc([C@@H](CS(C)(=O)=O)n2c(=O)n(C3CC3)c3cc(-c4ccccc4F)ccc32)ccc1OC [WX023] | 1.89 |
| CCOc1cc([C@@H](CS(C)(=O)=O)n2c(=O)[nH]c3cc(-c4nnccc4C)ccc32)ccc1OC [WX027] | 17.8 |
| CCOc1cc([C@@H](CS(C)(=O)=O)n2c(=O)n(Cc3ccccc3F)c3cc(C(F)(F)F)cc(F)c32)ccc1OC [WX060] | 34.4 |
| CCOC(=O)c1cccc2c1[nH]c(=O)n2[C@H](CS(C)(=O)=O)c1ccc(OC)c(OCC)c1 [WX098] | 18.1 |
| CCOc1cc([C@@H](CS(C)(=O)=O)n2c(=O)[nH]c3cc(-c4ccccc4OC)ccc32)ccc1OC [WX016] | < 0.5 |
| CCOc1cc([C@@H](CS(C)(=O)=O)n2c(=O)[nH]c3cc(C(F)(F)F)ccc32)ccc1OC [WX002] | 6.27 |
| CCOc1cc([C@@H](CS(C)(=O)=O)n2c(=O)[nH]c3c(-c4cccc(F)c4)cccc32)ccc1OC [WX088] | 2.4 |
| CCOc1cc([C@@H](CS(C)(=O)=O)n2c(=O)[nH]c3cc(F)cc(F)c32)ccc1OC [WX005] | 92.4 |
| CCOc1cc([C@@H](CS(C)(=O)=O)n2c(=O)[nH]c3c(-c4nccs4)cccc32)ccc1OC [WX095] | 6.58 |
| CCOc1cc([C@@H](CS(C)(=O)=O)n2c(=O)[nH]c3cc(-c4ccccc4C(F)(F)F)ccc32)ccc1OC [WX017] | < 0.5 |
| CCOc1cc([C@@H](CS(C)(=O)=O)n2c(=O)[nH]c3cc(-c4nccnc4C)ccc32)ccc1OC [WX026] | 8.44 |
| CCOc1cc([C@@H](CS(C)(=O)=O)n2c(=O)[nH]c3c(Cc4ccccc4F)cccc32)ccc1OC [WX094] | < 0.5 |
| CCOc1cc([C@@H](CS(C)(=O)=O)n2c(=O)[nH]c3cc(-c4ccccc4Cl)ccc32)ccc1OC [WX015] | 0.676 |

Continued, values first:

| IC50 [nM] | Structure (SMILES) |
| --- | --- |
| 9.12 | CCOc1cc([C@@H](CS(C)(=O)=O)n2c(=O)n(CC(F)F)c3cc(Cl)ccc32)ccc1OC [WX036] |
| 30.6 | CCOc1cc([C@@H](CS(C)(=O)=O)n2c(=O)n(CCO)c3cc(F)ccc32)ccc1OC [WX050] |
| 8.3 | CCOc1cc([C@@H](CS(C)(=O)=O)n2c(=O)[nH]c3cc(C(=O)CC)ccc32)ccc1OC [WX035] |
| 11.9 | CCOc1cc([C@@H](CS(C)(=O)=O)n2c(=O)n(CC3CCC3)c3cc(Cl)ccc32)ccc1OC [WX041] |
| 22.3 | CCOc1cc([C@@H](CS(C)(=O)=O)n2c(=O)[nH]c3c(Cl)cccc32)ccc1OC [WX008] |
| 3.3 | CCOC(=O)c1ccc2c(c1)[nH]c(=O)n2[C@H](CS(C)(=O)=O)c1ccc(OC)c(OCC)c1 [WX031] |
| 6.83 | CCOc1cc([C@@H](CS(C)(=O)=O)n2c(=O)n(CCOC)c3cc(Cl)ccc32)ccc1OC [WX042] |
| 4.28 | CCOc1cc([C@@H](CS(C)(=O)=O)n2c(=O)n(CCO)c3cc(C(F)(F)F)ccc32)ccc1OC [WX056] |
| < 0.5 | CCOc1cc([C@@H](CS(C)(=O)=O)n2c(=O)n(CC#N)c3cc(-c4ccccc4F)ccc32)ccc1OC [WX071] |
| 13.2 | CCOc1cc([C@@H](CS(C)(=O)=O)n2c(=O)n(CC)c3cc(C(F)(F)F)ccc32)ccc1OC [WX054] |
| 0.477 | CCOc1cc([C@@H](CS(C)(=O)=O)n2c(=O)n(CC)c3cc(-c4ccccc4F)ccc32)ccc1OC [WX069] |
| 8.46 | CCOc1cc([C@@H](CS(C)(=O)=O)n2c(=O)n(CC#N)c3cc(F)cc(F)c32)ccc1OC [WX058] |
| 22.4 | CCOc1cc([C@@H](CS(C)(=O)=O)n2c(=O)[nH]c3cc(C(=O)O)ccc32)ccc1OC [WX034] |
| 10.1 | CCOc1cc([C@@H](CS(C)(=O)=O)n2c(=O)n(Cc3ccccc3F)c3ccccc32)ccc1OC [WX067] |
| 7.99 | CCOc1cc([C@@H](CS(C)(=O)=O)n2c(=O)n(C)c3cc(Cl)ccc32)ccc1OC [WX038] |
| 68.3 | CCOc1cc([C@@H](CS(C)(=O)=O)n2c(=O)n(CCO)c3cc(F)cc(F)c32)ccc1OC [WX059] |
